“Also recorded” adds a separate entry of the source.
Assays:
[1] = target: T1, PrP^Sc in ScN2a cells (Mus musculus, UniProt P04925); settings: cited from earlier work
[2] = target: T1, PrP^Sc in ScN2a cells; settings: cited from earlier work; remark: listed apart in the source
[3] = target: T1, PrP^Sc in ScN2a cells; assay type: cell-based

T1 sequence (P04925 23-230 limits assumed): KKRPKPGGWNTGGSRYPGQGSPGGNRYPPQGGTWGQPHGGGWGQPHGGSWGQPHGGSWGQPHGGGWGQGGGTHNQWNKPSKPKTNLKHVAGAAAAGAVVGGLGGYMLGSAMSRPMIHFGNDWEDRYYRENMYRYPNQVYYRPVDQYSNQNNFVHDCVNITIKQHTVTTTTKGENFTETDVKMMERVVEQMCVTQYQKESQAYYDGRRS

OCC(O)CO [glycerol]
reduction of pre-existing PrP^Sc levels [1]: cannot reduce pre-existing PrP^Sc levels | formation of PrP^Sc [2]: inhibit the formation of new PrP^Sc

CCN(CC)CCCC(C)Nc1ccnc2cc(Cl)ccc12 (centres unmarked) [chloroquine]
effect of lysosomotropic agent on ability of PEI to eliminate PrP^Sc [3]: blocked the ability of PEI to eliminate PrP^Sc; also recorded: clear bands for PrP^Sc | effect of lysosomotropic agent alone on PrP^Sc levels [1]: have no effect on PrP^Sc levels | formation of PrP^Sc [2]: do not interfere with the formation of PrP^Sc

CC[C@@]1([C@@H]2O[C@@H]([C@H]3O[C@@](O)(CO)[C@H](C)C[C@@H]3C)C[C@@H]2C)CC[C@H]([C@]2(C)CC[C@]3(C[C@H](O)[C@@H](C)[C@@H]([C@@H](C)[C@@H](OC)[C@H](C)C(=O)O)O3)O2)O1 [monensin]
formation of PrP^Sc [2]: do not interfere with the formation of PrP^Sc

C[S+](C)[O-] [DMSO, dimethyl sulfoxide]
reduction of pre-existing PrP^Sc levels [1]: cannot reduce pre-existing PrP^Sc levels | formation of PrP^Sc [2]: inhibit the formation of new PrP^Sc

NH4Cl
effect of lysosomotropic agent on ability of PEI to eliminate PrP^Sc [3]: failure of NH4Cl to affect PrP^Sc levels; also recorded: barely detectable amounts of PrP^Sc | effect of lysosomotropic agent alone on PrP^Sc levels [1]: have no effect on PrP^Sc levels | formation of PrP^Sc [2]: do not interfere with the formation of PrP^Sc

Reference: patent US20020041862A1 (priority 1999, published 2002)
